Data reported in PubChem BioAssay (NCI).
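Assay format: 96-well plates, 48-hour exposure. GI50: concentration for 50% inhibition of growth. Definition used: TGI = concentration required for complete inhibition of growth.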

Columns and labels:
Test in all cases: NCI-60 cell line screen, 48 h
U251 CNS = system: U251 CNS
KM12 colon = system: KM12 colon
HT29 colon = system: HT29 colon
LOX IMVI melanoma = system: LOX IMVI melanoma
NCI-H226 lung = system: NCI-H226 lung
OVCAR-5 ovarian = system: OVCAR-5 ovarian
M14 melanoma = system: M14 melanoma
SNB-19 CNS = system: SNB-19 CNS
CCRF-CEM leukemia = system: CCRF-CEM leukemia
HL-60(TB) leukemia = system: HL-60(TB) leukemia
SF-268 CNS = system: SF-268 CNS
786-0 renal = system: 786-0 renal
NCI-H460 lung = system: NCI-H460 lung
TK-10 renal = system: TK-10 renal
UO-31 renal = system: UO-31 renal
HCT-116 colon = system: HCT-116 colon
DU-145 prostate = system: DU-145 prostate
SK-OV-3 ovarian = system: SK-OV-3 ovarian
SNB-75 CNS = system: SNB-75 CNS
MCF7 breast = system: MCF7 breast
COLO 205 colon = system: COLO 205 colon
EKVX NSCLC = system: EKVX NSCLC
MDA-MB-231 breast = system: MDA-MB-231 breast
A549 NSCLC = system: A549 NSCLC
HOP-92 NSCLC = system: HOP-92 NSCLC
RXF 393 renal = system: RXF 393 renal
HCC-2998 colon = system: HCC-2998 colon
UACC-62 melanoma = system: UACC-62 melanoma
T-47D breast = system: T-47D breast
HOP-62 NSCLC = system: HOP-62 NSCLC
SK-MEL-2 melanoma = system: SK-MEL-2 melanoma
OVCAR-4 ovarian = system: OVCAR-4 ovarian
A498 renal = system: A498 renal
BT-549 breast = system: BT-549 breast
HCT-15 colon = system: HCT-15 colon
OVCAR-8 ovarian = system: OVCAR-8 ovarian
ACHN renal = system: ACHN renal
MALME-3M melanoma = system: MALME-3M melanoma
NCI-H522 lung = system: NCI-H522 lung
SW-620 colon = system: SW-620 colon
SR leukemia = system: SR leukemia
MDA-MB-468 breast = system: MDA-MB-468 breast
IGROV1 ovarian = system: IGROV1 ovarian
SK-MEL-28 melanoma = system: SK-MEL-28 melanoma
CAKI-1 renal = system: CAKI-1 renal
RPMI-8226 leukemia = system: RPMI-8226 leukemia
MDA-MB-435 = system: MDA-MB-435
PC-3 prostate = system: PC-3 prostate
SN12C renal = system: SN12C renal
K-562 leukemia = system: K-562 leukemia
MOLT-4 leukemia = system: MOLT-4 leukemia
NCI-H23 lung = system: NCI-H23 lung
OVCAR-3 ovarian = system: OVCAR-3 ovarian
NCI/ADR-RES ovarian = system: NCI/ADR-RES ovarian
SF-295 CNS = system: SF-295 CNS
SF-539 CNS = system: SF-539 CNS
UACC-257 melanoma = system: UACC-257 melanoma
HS 578T breast = system: HS 578T breast
SK-MEL-5 melanoma = system: SK-MEL-5 melanoma

Molecule `CC(C)NC(=O)c1cc(-c2ccc(NC(=O)Nc3ccc(N4CCN(C)CC4)c(C(F)(F)F)c3)cc2)nc2cccnc12` has a GI50 (U251 CNS) of 1.74 µM, a TGI (U251 CNS) of 3.55 µM and a GI50 (KM12 colon) of 2.43 µM. The TGI (KM12 colon) was 5.12 µM, the GI50 (HT29 colon) was 1.95 µM and the TGI (HT29 colon) was 3.98 µM. It also gave a GI50 (LOX IMVI melanoma) of 1.95 µM, a TGI (LOX IMVI melanoma) of 3.62 µM and a GI50 (NCI-H226 lung) of 6.13 µM. The TGI (NCI-H226 lung) was 14.8 µM, the GI50 (OVCAR-5 ovarian) was 1.98 µM and the TGI (OVCAR-5 ovarian) was 3.81 µM. It also gave a GI50 (M14 melanoma) of 2 µM, a TGI (M14 melanoma) of 4.13 µM and a GI50 (SNB-19 CNS) of 2.09 µM. It also gave a TGI (SNB-19 CNS) of 4.75 µM, a GI50 (CCRF-CEM leukemia) of 0.539 µM and a TGI (CCRF-CEM leukemia) of 3.82 µM. It also gave a GI50 (HL-60(TB) leukemia) of 0.572 µM, a TGI (HL-60(TB) leukemia) of 3.18 µM and a GI50 (SF-268 CNS) of 6.09 µM. It also gave a TGI (SF-268 CNS) of 16.8 µM, a GI50 (786-0 renal) of 1.65 µM and a TGI (786-0 renal) of 3.34 µM. It also gave a GI50 (NCI-H460 lung) of 2.11 µM, a TGI (NCI-H460 lung) of 4.04 µM and a GI50 (TK-10 renal) of 2.24 µM. It also gave a TGI (TK-10 renal) of 4.18 µM, a GI50 (UO-31 renal) of 1.76 µM and a TGI (UO-31 renal) of 3.39 µM. For the same molecule, the GI50 (HCT-116 colon) was 2.06 µM, the TGI (HCT-116 colon) was 3.92 µM and the GI50 (DU-145 prostate) was 2.18 µM. For the same molecule, the TGI (DU-145 prostate) was 4.15 µM, the GI50 (SK-OV-3 ovarian) was 4.85 µM and the TGI (SK-OV-3 ovarian) was 16.2 µM. It also gave a GI50 (SNB-75 CNS) of 0.657 µM, a TGI (SNB-75 CNS) of 4.94 µM and a GI50 (MCF7 breast) of 0.397 µM. It also gave a TGI (MCF7 breast) of 2.79 µM, a GI50 (COLO 205 colon) of 2.37 µM and a TGI (COLO 205 colon) of 5.56 µM. The GI50 (EKVX NSCLC) was 2.19 µM, the TGI (EKVX NSCLC) was 4.3 µM and the GI50 (MDA-MB-231 breast) was 0.82 µM. It also gave a TGI (MDA-MB-231 breast) of 2.03 µM, a GI50 (A549 NSCLC) of 6.5 µM and a TGI (A549 NSCLC) of 12.8 µM. The GI50 (HOP-92 NSCLC) was 0.98 µM, the TGI (HOP-92 NSCLC) was 2.94 µM and the GI50 (RXF 393 renal) was 1.07 µM. It also gave a TGI (RXF 393 renal) of 2.89 µM, a GI50 (HCC-2998 colon) of 2.09 µM and a TGI (HCC-2998 colon) of 3.96 µM. For the same molecule, the GI50 (UACC-62 melanoma) was 2.11 µM, the TGI (UACC-62 melanoma) was 4.13 µM and the GI50 (T-47D breast) was 1.71 µM. It also gave a TGI (T-47D breast) of 31 µM, a GI50 (HOP-62 NSCLC) of 2.24 µM and a TGI (HOP-62 NSCLC) of 4.73 µM. For the same molecule, the GI50 (SK-MEL-2 melanoma) was 2.72 µM, the TGI (SK-MEL-2 melanoma) was 6.5 µM and the GI50 (OVCAR-4 ovarian) was 2.21 µM. It also gave a TGI (OVCAR-4 ovarian) of 5.18 µM, a GI50 (A498 renal) of 13.5 µM and a TGI (A498 renal) of 19.3 µM. For the same molecule, the GI50 (BT-549 breast) was 1.37 µM, the TGI (BT-549 breast) was 6.31 µM and the GI50 (HCT-15 colon) was 2.1 µM. It also gave a TGI (HCT-15 colon) of 4.2 µM, a GI50 (OVCAR-8 ovarian) of 2.16 µM and a TGI (OVCAR-8 ovarian) of 4.81 µM. It also gave a GI50 (ACHN renal) of 2.03 µM, a TGI (ACHN renal) of 3.74 µM and a GI50 (MALME-3M melanoma) of 1.65 µM. It also gave a TGI (MALME-3M melanoma) of 3.32 µM, a GI50 (NCI-H522 lung) of 2.01 µM and a TGI (NCI-H522 lung) of 4.02 µM. It also gave a GI50 (SW-620 colon) of 1.79 µM, a TGI (SW-620 colon) of 3.74 µM and a GI50 (SR leukemia) of 2.29 µM. For the same molecule, the TGI (SR leukemia) was 7.45 µM, the GI50 (MDA-MB-468 breast) was 0.801 µM and the TGI (MDA-MB-468 breast) was 2.29 µM. The GI50 (IGROV1 ovarian) was 1.74 µM, the TGI (IGROV1 ovarian) was 3.55 µM and the GI50 (SK-MEL-28 melanoma) was 1.98 µM. The TGI (SK-MEL-28 melanoma) was 3.68 µM, the GI50 (CAKI-1 renal) was 1.96 µM and the TGI (CAKI-1 renal) was 3.74 µM. The GI50 (RPMI-8226 leukemia) was 2 µM, the TGI (RPMI-8226 leukemia) was 7.82 µM and the GI50 (MDA-MB-435) was 1.94 µM. The TGI (MDA-MB-435) was 3.88 µM, the GI50 (PC-3 prostate) was 1.82 µM and the TGI (PC-3 prostate) was 4.81 µM. The GI50 (SN12C renal) was 1.81 µM, the TGI (SN12C renal) was 3.53 µM and the GI50 (K-562 leukemia) was 2.79 µM. It also gave a TGI (K-562 leukemia) of 33.4 µM, a GI50 (MOLT-4 leukemia) of 1.05 µM and a TGI (MOLT-4 leukemia) of 4.19 µM. It also gave a GI50 (NCI-H23 lung) of 2.23 µM, a TGI (NCI-H23 lung) of 4.44 µM and a GI50 (OVCAR-3 ovarian) of 1.91 µM. The TGI (OVCAR-3 ovarian) was 3.94 µM, the GI50 (NCI/ADR-RES ovarian) was 3.29 µM and the TGI (NCI/ADR-RES ovarian) was 9.35 µM. It also gave a GI50 (SF-295 CNS) of 1.83 µM, a TGI (SF-295 CNS) of 3.57 µM and a GI50 (SF-539 CNS) of 1.51 µM. For the same molecule, the TGI (SF-539 CNS) was 3.06 µM, the GI50 (UACC-257 melanoma) was 2.09 µM and the TGI (UACC-257 melanoma) was 4.2 µM. The GI50 (HS 578T breast) was 1.36 µM, the TGI (HS 578T breast) was 7.5 µM and the GI50 (SK-MEL-5 melanoma) was 2.07 µM. The TGI (SK-MEL-5 melanoma) was 3.76 µM.
